According to patent US20140287995A1, “STABLE PHARMACEUTICAL FORMULATIONS OF GROWTH FACTOR PEPTIDES” (THE UNIVERSITY OF CHICAGO, priority 2011, published 2014):
Blank lines part the entries; values can stand above or below the compound they belong to.

Assays:
[1] = system: non-transformed African Green Monkey kidney epithelial (BSC-1) cells; assay: Mitogenic response of BSC-1 cells (cell number counted in a hemocytometer after 4 days); assay type: cell-based; details: for mitogenic activity of excipient without NX001: 20 mM histidine or 8.8% sucrose, alone or together, diluted 160-fold, FIG. 3A
Protocol: Various lots of unformulated NX001 can be assayed for bioactivity using the mitogenic response of BSC-1 cells as an indicator (see, for instance, U.S. Pat. No. 6,096,706). In this example, two lots of NX001 peptide (Lots PPL-WGF0501A and lot PPL WGF0801) were tested. Varying amounts of the two peptides were added to near-confluent monolayers of non-transformed African Green Monkey kidney epithelial (BSC-1) cells, and the number of cells was counted in a hemocytometer 4 days later.
Each formulation was reconstituted with 1.0 mL water, and was swirled to dissolve the contents. Each solution was then be diluted to 0.125 mg/mL with water. Aliquots of 8 μL each was added to triplicate wells of BSC-1 cells to yield final concentrations of NX001 from 0.05 to 0.4 μg/mL. The plates were incubated at 37° C. for 4 days, and then cells was counted. A third lot of NX001 (PPL-WGF0801) that is not formulated and not lyophilized was dissolved and diluted in water and was used as positive control.
To investigate whether excipients alone or in combination might modify the mitogenic activity, NX001 was added to 20 mM histidine, 8.8% sucrose or the combination and the solutions were diluted to 0.125 mg/mL. Each of the near confluent monolayers of BSC-1 cells in 5 ml DMEM containing 40 μM biotin and 0.5% calf serum received either 8 μl of water, 8 μl of an excipient, or 0.2 μg/ml of PPL-WGF0801 in a final volume of 8 μl of 8.8% sucrose or 20 mM histidine (pH 5.5), or both.
An experiment to determine whether the pH of formulated NX001 affected bioactivity was performed. In this experiment, NX001 (lot PPLWGF0801) was used as a positive control and was dissolved in water to […], diluted 1/160 with water to 0.125 mg/mL, and 8 μL was added to assay plates to a final concentration of 0.2 μg/mL. (see FIG. 4, bar 1).
NX001 (lot PPLWGF0801) was dissolved to 20 mg/mL in either water or PBS, diluted to 0.125 mg/mL in water or PBS as specified, and 8 μL was then added to assay plates to a final concentration of […].
To insure that formulation of NX001 yielded a solution for injection that was as physiological as possible, the formulation of NX001 was adjusted to provide a neutral, iso-osmotic preparation. The adjusted formulation contains 20 mg/mL NX001, 20 mM histidine, 200 mM sucrose at a pH of 7.25, or 80 mg/mL NX001, 20 mM histidine, 15 mM sucrose, pH 7.25. Vials of formulated and lyophilized NX001 at either 80 mg/mL or 20 mg/mL were reconstituted with 1 mL water and diluted to […] before bioassay.

[2] = Stability of neutral lyophilized NX001 formulation, 12 months storage; assay type: physicochemical
Protocol: The stability of NX001 formulations was also evaluated. The stability of a lot of NX001 was monitored for 12 months at storage temperatures of 5° C. and 25° C. Appearance of lyophilized cake, reconstitution time, appearance of the reconstituted solution, pH, identity of the peptide, potency and purity of the peptide, and residual moisture were evaluated.
The evaluated parameters of neutral formulations of NX001 were not changed following 12 months storage at temperatures of 5° C. and 25° C.

[3] = pH of histidine/sucrose solutions after addition of NX001; assay type: physicochemical; details: 20 mM histidine
Protocol: Next, 20 mM histidine, containing 8.8% sucrose was prepared and the pH was adjusted to 5.5 with HCl. Similarly, additional solutions of 20 mM histidine containing 8.8% sucrose were prepared and the pH was adjusted to 7.5 and 9.0. These solutions were diluted 1/160 and 8 μL aliquots added to plates of BSC-1 cells. As shown in FIG. 4 (bars 2, 3, 4), the solutions were not mitogenic themselves. NX001 was dissolved in each of solution to 0.125 mg/mL.

[4] = 5° C., After 12 months of storage
[5] = 25° C., After 12 months of storage

Compound: gly-tyr-glu-ser-pro-ala-his-gly-tyr-gln-ala-pro-asn-gln (GYESPAHGYQAPNQ) [Scrambled NX001 peptide, 14-amino acid peptide including the same amino acids as NX001, but in scrambled order, reference compound]
promotion of cell growth ([1]; FIG. 6 closed squares): did not promote cell growth

Cake appearance [2, 4]: White cake
Potency (% of NX001 recovered in main peak compared to stated vial concentration) [2, 4]: 99.6%
Purity [2, 4]: 98.8%
Reconstituted appearance [2, 4]: Clear, colorless
Reconstitution time [2, 4]: 64 s
Residual moisture [2, 4]: 0.80%
Total % impurities [2, 4]: 1.2%
pH [2, 4]: 7.2
Cake appearance ([2]; 5° C., Initial): White cake
Potency (% of NX001 recovered in main peak compared to stated vial concentration) ([2]; 5° C., Initial): 102%
Purity ([2]; 5° C., Initial): 98.8%
Reconstituted appearance ([2]; 5° C., Initial): Clear, colorless
Reconstitution time ([2]; 5° C., Initial): 45 s
Residual moisture ([2]; 5° C., Initial): 0.71%
Total % impurities ([2]; 5° C., Initial): 1.2%
pH ([2]; 5° C., Initial): 7.2
Cake appearance [2, 5]: White cake
Potency (% of NX001 recovered in main peak compared to stated vial concentration) [2, 5]: 97.9%
Purity [2, 5]: 98.4%
Reconstituted appearance [2, 5]: Clear, colorless
Reconstitution time [2, 5]: 72 s
Residual moisture [2, 5]: 1.05%
Total % impurities [2, 5]: 1.6%
pH [2, 5]: 7.3
Cake appearance ([2]; 25° C., Initial): White cake
Potency (% of NX001 recovered in main peak compared to stated vial concentration) ([2]; 25° C., Initial): 102%
Purity ([2]; 25° C., Initial): 98.8%
Reconstituted appearance ([2]; 25° C., Initial): Clear, colorless
Reconstitution time ([2]; 25° C., Initial): 45 s
Residual moisture ([2]; 25° C., Initial): 0.71%
Total % impurities ([2]; 25° C., Initial): 1.2%
pH ([2]; 25° C., Initial): 7.2
pH of solution after dissolving NX001 ([3]; 8.8% sucrose adjusted to pH 5.5 before NX001): < 5.0
pH of solution after dissolving NX001 ([3]; 8.8% sucrose adjusted to pH 7.5 before NX001): ~5.5
pH of solution after dissolving NX001 ([3]; 8.8% sucrose adjusted to pH 9.0 before NX001): ~6.5
Compound: AQPYPQGNHEASYG [NX001, growth factor peptide designated NX001; PPL-WGF codes are lots of it]
cell growth ([1]; NX001 0.2 μg/mL added separately from histidine/sucrose solutions of pH 5.5, 7.5, 9.0, FIG. 4 bars 8, 9, 10): increased cell growth to the same extent as the positive control alone
growth-promoting activity ([1]; NX001 0.2 μg/ml in the presence of 20 mM histidine (pH 5.5) alone, FIG. 3B): abolished
increase in cell number ([1]; NX001 0.2 μg/ml in the presence of 8.8% sucrose, FIG. 3B): 23%
growth-promoting activity ([1]; NX001 0.2 μg/ml in the presence of histidine plus sucrose, FIG. 3B): abolished
increase in cell number ([1]; NX001 alone, 0.2 μg/ml, FIG. 3B): 36%
increase in growth of BSC-1 cells ([1]; NX001 dissolved and diluted in water, 0.125 μg/mL, FIG. 5 bar 3): 24%
mitogenicity ([1]; NX001 dissolved in 20 mM histidine, 8.8% sucrose, resulting pH <5.0, ~5.5, ~6.5, not neutralized, FIG. 4 bars 5, 6, 7): not mitogenic
increase in cell number ([1]; NX001 dissolved in PBS and diluted in water, 0.125 μg/mL, FIG. 5 bar 4): increased cell number by the same amount
mitogenic activity ([1]; NX001 dissolved in histidine/sucrose (final pH 5.5), diluted in water, FIG. 5 bar 5): inactive
increase in cell number ([1]; NX001 dissolved in histidine/sucrose and diluted in PBS (pH 7.25), FIG. 5 bar 7): > 24%
mitogenic activity ([1]; NX001 dissolved in histidine/sucrose, neutralized with NaOH to pH 7.5, diluted in water, FIG. 5 bar 6): active
mitogenicity ([1]; NX001 in 20 mM histidine, 8.8% sucrose neutralized with NaOH to pH 7.5 before dilution in water, FIG. 4 bars 11, 12, 13): mitogenic to the same extent as the positive control
mitogenicity ([1]; formulated at 20 mg/mL in 20 mM histidine, 254 mM sucrose, pH 6.5, lyophilized, reconstituted with water, 0.05 to 0.4 μg/mL, FIG. 2): not mitogenic
mitogenic activity ([1]; lot PPL-WGF0501A dissolved in 20 mM histidine, 200 mM sucrose, pH 7.25 immediately before assay, FIG. 6 open circles): active
increase in cell number ([1]; lot PPL-WGF0501A dissolved in PBS immediately before assay, FIG. 6 closed circles): ~30%
maximal mitogenic response ([1]; unformulated NX001 peptide lots, BSC-1 cells, FIG. 1): ~26%

Compound: OC[C@H]1O[C@@](CO)(O[C@H]2O[C@H](CO)[C@@H](O)[C@H](O)[C@H]2O)[C@@H](O)[C@@H]1O [sucrose]
mitogenic activity of excipient without NX001 [1]: did not exhibit mitogenic activity

Compound: N[C@@H](Cc1c[nH]cn1)C(=O)O [histidine]
mitogenic activity of excipient without NX001 [1]: did not exhibit mitogenic activity
